As a reminder, the IC50 is the concentration that inhibits the measured activity by half.

Data set [1] has as its system fatty acid oxidation in rat hepatocytes.
Procedure: Fatty acid oxidation in the hepatocytes was determined the conversion of C14-oleic acid to soluble acid products as described (Jiang G, Li Z, Liu F, Ellsworth K, Dallas-Yang Q, Wu M, Ronan J, Essau C, Murphy C, Szalkowski D, Bergeron R, Doebber T and Zhang B. Prevention of obesity in mice by antisense oligonucleotide inhibitors of stearoyl-CoA desaturase-1. J. Clin. Invest. 115: 1030-1038 (2003); Mannaerts G P, Debeer L J, Thomas J, ans DeSchepper P J. Mitochondrial and proxisomal fatty acid oxidation in liver homogenates and isolated hepatocytes from control and clofibrate-treated rats. J. Biol. Chem. 254:4585-4595 (1979)) with modifications. Hepatocytes seeded overnight and washed twice with PBS and then pre-incubated with compounds in 5 μl of DMSO in 2 ml medium199 plus 0.25% bovine serum albumin for 60 min. C14-oleic acid 0.25 μCi (NEN) was added to each well. The plates were gassed and sealed. After one hr incubation, 1 ml of medium was removed, mixed with 100 μl of 10% BSA and then 100 μl 60% HClO4. After centrifugation, 1 ml of the solution was counted the level of soluble acid products.
Data set [2] addresses T1, rat FAS (Rattus norvegicus, UniProt P12785).
T1 construct: The clarified supernatant was fractionated by ammonium sulfate precipitation; from tissue; host or cells: rat liver (fasted and high carbohydrate re-fed rats)
In words: FAS inhibitory activity in cell free Flashplate assay (formation of 3H-palmitate), rat FAS. The class given is biochemical. To be noted: rat liver FAS, cell free flash plate assay. The method, then: (§1) Compounds with formula I (platensimycin) and II (platencin) were titrated against human or rat FAS using the Flashplate assay. Animal FAS activity was assayed radiochemically for the formation of ^3H-palmitate. The assay buffer contained 200 mM KPi, pH 7, 2 mM EDTA, 2.5 mM DTT, 5 μM Acetyl CoA (^3H-acetyl-CoA, Specific Activity=0.3 Ci/mmole), 21 μM malonyl-CoA, and 20 uM NADPH in a final reaction volume of 200 μl Assays are performed in 96-well Phospholipid coated FlashPlates (Perkin Elmer). The reaction was initiated by adding FAS (0.17 mUnits/well, 1 Unit=1μ mole of NADPH consumed/minute). The plates were incubated at RT for 5 minutes before adding 6 μl of perchloric acid to stop the reaction. The plates sat at RT for at least 3 hours, preferably overnight, before counting. Background was determined from wells without malonyl CoA. The source of Human FAS was SkBr3 cells. Cell extracts were processed by ammonium sulfate precipitation followed by DEAE chromatography essentially as described by Jayakumar et al., 1995 (Jayakumar A, Tai M H, Huang W Y, al-Feel W, Hsu M, Abu-Elheiga L, Chirala S S, Wakil S J. Human fatty acid synthase: properties and molecular cloning. Proc Natl Acad Sci USA. 1995 Sep. 12; 92(19):8695-9). […]

For data set [3], the target named is T2, human FAS (Homo sapiens, UniProt P49327).
T2 construct: Cell extracts were processed by ammonium sulfate precipitation followed by DEAE chromatography; endogenous in cells; host or cells: SkBr3 human breast cancer cells (endogenous FAS, partially purified)
T2 sequence (P49327 whole entry): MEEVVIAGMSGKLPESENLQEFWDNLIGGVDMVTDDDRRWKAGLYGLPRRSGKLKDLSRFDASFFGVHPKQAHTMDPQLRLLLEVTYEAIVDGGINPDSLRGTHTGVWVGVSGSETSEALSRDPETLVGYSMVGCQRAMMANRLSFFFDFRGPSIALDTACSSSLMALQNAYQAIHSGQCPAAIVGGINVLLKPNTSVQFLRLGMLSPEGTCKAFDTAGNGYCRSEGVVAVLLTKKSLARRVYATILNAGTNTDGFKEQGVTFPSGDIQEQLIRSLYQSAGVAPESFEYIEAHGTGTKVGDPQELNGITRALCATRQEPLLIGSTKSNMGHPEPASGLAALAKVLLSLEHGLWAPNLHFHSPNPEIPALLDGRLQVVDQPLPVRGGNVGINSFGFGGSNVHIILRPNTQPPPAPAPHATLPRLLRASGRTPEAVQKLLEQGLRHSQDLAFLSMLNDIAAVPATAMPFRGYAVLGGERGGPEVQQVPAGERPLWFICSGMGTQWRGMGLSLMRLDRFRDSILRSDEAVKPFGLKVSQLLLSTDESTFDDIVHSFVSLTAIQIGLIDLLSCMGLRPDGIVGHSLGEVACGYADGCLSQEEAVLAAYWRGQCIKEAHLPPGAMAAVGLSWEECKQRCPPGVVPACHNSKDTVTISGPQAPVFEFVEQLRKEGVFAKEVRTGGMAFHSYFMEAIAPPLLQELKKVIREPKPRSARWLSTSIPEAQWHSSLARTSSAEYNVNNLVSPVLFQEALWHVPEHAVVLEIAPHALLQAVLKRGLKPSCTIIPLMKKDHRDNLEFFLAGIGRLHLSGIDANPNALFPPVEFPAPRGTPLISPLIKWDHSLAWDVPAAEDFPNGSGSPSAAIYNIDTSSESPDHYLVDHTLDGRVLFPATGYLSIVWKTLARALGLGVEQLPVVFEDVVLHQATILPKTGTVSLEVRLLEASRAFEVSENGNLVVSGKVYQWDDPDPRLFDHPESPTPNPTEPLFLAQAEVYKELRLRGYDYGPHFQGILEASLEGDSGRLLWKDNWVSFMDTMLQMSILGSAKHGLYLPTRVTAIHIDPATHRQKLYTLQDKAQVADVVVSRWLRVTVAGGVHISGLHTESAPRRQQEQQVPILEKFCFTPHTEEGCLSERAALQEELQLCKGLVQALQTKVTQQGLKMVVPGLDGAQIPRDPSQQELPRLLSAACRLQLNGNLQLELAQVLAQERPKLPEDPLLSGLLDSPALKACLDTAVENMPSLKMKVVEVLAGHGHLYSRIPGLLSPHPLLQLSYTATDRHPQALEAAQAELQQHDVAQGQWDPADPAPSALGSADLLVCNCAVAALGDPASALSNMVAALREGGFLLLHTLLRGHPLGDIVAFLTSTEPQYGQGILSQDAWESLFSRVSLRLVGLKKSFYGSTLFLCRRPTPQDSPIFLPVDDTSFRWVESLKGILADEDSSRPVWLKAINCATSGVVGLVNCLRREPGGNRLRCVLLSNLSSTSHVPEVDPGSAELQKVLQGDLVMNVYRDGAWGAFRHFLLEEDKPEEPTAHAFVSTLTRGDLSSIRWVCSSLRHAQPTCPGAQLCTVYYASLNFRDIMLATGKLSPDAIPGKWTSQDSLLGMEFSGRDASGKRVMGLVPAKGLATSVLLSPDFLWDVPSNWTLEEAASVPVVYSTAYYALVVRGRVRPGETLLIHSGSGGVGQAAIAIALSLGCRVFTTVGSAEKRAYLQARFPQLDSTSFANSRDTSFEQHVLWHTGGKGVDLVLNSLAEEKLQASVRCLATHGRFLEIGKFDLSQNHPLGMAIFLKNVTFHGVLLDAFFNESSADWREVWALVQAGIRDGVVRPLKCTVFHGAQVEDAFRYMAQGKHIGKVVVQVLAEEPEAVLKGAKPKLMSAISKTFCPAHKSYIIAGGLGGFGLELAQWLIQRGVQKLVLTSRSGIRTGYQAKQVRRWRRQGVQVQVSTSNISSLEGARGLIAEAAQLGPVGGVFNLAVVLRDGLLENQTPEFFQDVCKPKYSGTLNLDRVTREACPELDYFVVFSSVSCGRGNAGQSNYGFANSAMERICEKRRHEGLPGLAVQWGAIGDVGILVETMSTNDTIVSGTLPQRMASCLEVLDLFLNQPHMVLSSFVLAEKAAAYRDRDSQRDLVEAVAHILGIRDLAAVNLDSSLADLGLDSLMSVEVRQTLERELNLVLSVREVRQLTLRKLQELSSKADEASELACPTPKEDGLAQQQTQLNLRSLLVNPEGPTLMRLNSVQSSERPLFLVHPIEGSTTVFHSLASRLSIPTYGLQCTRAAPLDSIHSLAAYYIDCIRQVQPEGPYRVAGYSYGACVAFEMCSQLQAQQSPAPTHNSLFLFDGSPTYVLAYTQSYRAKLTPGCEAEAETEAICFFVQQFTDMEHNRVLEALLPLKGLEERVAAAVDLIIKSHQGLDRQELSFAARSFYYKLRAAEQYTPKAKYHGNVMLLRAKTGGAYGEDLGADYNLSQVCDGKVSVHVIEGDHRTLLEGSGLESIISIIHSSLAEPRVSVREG
In words: FAS inhibitory activity in cell free Flashplate assay (formation of 3H-palmitate), human FAS. The class given is biochemical. The following applies: human FAS from SkBr3 cells, cell free flash plate assay. The method, then:
as §1

In data set [4] the test system is fatty acid synthesis in rat hepatocytes. As to the kind of experiment: Fatty acid synthesis in rat hepatocytes in vitro (C14-acetate incorporation). In kind it is cell-based. To be noted: Hepatocyte, primary rat hepatocytes, read-out: Rat IC50 μM, fatty acid synthesis inhibitory activity. An excerpt: 115: 1030-1038 (2003) with modifications. […] The plates were gassed and sealed.

T1 sequence (P12785 whole entry): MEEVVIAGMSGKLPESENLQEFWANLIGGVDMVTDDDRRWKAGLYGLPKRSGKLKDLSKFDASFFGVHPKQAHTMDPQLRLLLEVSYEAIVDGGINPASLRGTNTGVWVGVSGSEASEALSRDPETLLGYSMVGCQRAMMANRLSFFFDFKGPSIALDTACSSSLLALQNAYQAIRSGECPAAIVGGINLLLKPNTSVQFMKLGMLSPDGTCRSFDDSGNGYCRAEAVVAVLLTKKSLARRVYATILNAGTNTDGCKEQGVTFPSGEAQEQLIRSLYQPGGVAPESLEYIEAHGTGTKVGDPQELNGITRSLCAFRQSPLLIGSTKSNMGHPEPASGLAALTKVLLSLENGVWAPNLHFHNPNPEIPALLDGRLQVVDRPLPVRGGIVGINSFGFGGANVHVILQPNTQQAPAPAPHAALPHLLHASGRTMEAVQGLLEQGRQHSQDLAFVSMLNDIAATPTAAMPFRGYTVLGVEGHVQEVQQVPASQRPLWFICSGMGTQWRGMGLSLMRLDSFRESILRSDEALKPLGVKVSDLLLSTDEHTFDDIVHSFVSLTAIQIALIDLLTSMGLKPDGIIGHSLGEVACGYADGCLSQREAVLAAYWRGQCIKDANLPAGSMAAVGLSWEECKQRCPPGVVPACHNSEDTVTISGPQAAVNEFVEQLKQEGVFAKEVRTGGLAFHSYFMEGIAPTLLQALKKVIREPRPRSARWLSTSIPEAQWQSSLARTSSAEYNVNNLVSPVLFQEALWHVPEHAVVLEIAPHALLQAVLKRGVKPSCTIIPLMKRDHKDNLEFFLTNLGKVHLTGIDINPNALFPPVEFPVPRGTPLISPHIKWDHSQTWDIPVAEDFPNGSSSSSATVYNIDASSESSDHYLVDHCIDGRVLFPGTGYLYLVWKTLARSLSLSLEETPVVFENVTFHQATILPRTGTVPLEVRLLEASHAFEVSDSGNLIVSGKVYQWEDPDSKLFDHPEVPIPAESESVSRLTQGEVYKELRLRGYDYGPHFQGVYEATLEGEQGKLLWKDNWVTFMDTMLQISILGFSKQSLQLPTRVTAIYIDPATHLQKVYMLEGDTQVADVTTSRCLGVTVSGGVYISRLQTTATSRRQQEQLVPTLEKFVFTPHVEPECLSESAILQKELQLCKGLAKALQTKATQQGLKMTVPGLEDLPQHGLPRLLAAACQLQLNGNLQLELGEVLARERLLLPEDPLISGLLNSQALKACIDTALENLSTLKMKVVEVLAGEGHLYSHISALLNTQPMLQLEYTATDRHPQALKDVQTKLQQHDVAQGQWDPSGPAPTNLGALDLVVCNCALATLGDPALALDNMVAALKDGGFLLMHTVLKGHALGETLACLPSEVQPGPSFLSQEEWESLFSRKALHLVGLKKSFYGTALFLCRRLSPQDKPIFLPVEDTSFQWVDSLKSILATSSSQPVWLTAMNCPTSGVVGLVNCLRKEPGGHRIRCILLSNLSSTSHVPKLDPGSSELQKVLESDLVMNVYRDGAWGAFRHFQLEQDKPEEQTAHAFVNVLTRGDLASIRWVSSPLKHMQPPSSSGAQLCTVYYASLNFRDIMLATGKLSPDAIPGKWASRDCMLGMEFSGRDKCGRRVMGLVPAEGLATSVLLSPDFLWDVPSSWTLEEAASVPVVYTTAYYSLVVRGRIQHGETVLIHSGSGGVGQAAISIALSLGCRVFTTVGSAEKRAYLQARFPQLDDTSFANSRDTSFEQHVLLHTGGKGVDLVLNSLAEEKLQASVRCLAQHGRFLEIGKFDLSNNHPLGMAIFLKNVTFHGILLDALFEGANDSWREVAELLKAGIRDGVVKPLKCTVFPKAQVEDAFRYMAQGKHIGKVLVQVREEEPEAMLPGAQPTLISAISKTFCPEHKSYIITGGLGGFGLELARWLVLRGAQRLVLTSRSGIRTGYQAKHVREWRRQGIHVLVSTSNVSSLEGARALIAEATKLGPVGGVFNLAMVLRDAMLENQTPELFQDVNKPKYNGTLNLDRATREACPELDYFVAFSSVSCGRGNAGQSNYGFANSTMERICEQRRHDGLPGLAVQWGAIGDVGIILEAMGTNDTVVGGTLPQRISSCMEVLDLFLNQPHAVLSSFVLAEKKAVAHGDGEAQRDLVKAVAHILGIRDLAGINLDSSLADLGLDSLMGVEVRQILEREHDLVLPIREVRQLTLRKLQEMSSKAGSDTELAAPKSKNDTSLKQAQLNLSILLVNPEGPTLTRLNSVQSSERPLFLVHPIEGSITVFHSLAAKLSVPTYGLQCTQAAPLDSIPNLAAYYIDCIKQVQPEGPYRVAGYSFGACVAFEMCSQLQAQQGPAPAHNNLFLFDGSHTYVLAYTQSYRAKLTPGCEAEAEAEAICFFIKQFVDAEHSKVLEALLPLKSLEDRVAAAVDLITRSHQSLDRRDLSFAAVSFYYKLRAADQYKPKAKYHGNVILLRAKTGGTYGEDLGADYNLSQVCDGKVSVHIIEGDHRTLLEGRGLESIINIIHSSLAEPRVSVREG

Take `C[C@]12C[C@@]34C=CC(=O)[C@@](C)(CCC(=O)Nc5c(O)ccc(C(=O)O)c5O)C3[C@H](CC1C4)O2` (stereo partly shown) [Formula I, platensimycin]: the “Inhibition of Oxidation of Fatty Acids, Rat Hepatocyte (% of control at 10 uM)” value in data set [1] was 59.7 % of control. The IC50 in data set [2] came to 0.18 µM; in data set [3], 0.3 µM; in data set [4], 0.093 µM.

For `C=C1C[C@@]23C=CC(=O)[C@@](C)(CCC(=O)Nc4c(O)ccc(C(=O)O)c4O)[C@@H]2C[C@@H]1CC3` [Formula II, platencin], the “Inhibition of Oxidation of Fatty Acids, Rat Hepatocyte (% of control at 10 uM)” value in data set [1] is reported as 66.0 % of control. Moreover, the concentration for half-maximal inhibition (IC50) turned out to be 6.3 µM in data set [3] and 3.24 µM in data set [4].

These data come from patent US8598153B2, “Method of treatment using fatty acid synthesis inhibitors” (Merck Sharp & Dohme Corp., priority 2006, dated 2013).
